Results reported in patent US4760148A, “5-aralkyl substituted 2H-benzotriazoles and stabilized compositions” (Ciba-Geigy Corporation, priority 1985, dated 1988).

Tests used:
[1] = in words, prior art patents; cited from earlier work
[2] = in words, prior art patents; cited from earlier work; remark: listed apart in the source
[3] = Solubility of benzotriazole stabilizers; format: physicochemical; settings: 25° C.
Description: The benzotriazole stabilizers are classically materials with relatively low solubility in common organic solvents. This is particularly the case where the benzotriazole is substituted in the 2-phenyl ring with aralkyl groups intended to decrease stabilizer volatility during processing and use.

[4] = Thermal gravimetric analysis (resistance to loss of benzotriazole stabilizers); settings: for Time (minutes) to 50% Weight Loss of Stabilizer: isothermal at 280° C.; for Time (minutes) to 50% Weight Loss of Stabilizer / Temperature °C. to 10% Weight Loss of Stabilizer / Temperature °C. to 50% Weight Loss of Stabilizer: 100 ml nitrogen/minute; for Temperature °C. to 10% Weight Loss of Stabilizer / Temperature °C. to 50% Weight Loss of Stabilizer: scanning at 10°(C.) per minute; for resistance to thermogravimetric loss: in words, compared with prior art benzotriazole F
Procedure: A number of 2-aryl-2H-benzotriazole light stabilizers are subjected to thermal gravimetric analysis with a flow rate of 100 ml nitrogen/minute both isothermally at 280° C. to indicate the time in minutes to reach 50% weight loss of the stabilizer as well as in a scanning mode at a heating rate of 10° (C.) per minute to ascertain the temperature at which 10% and 50% weight loss of stabilizer are observed.

[5] = Stabilizer loss on milling into polycarbonate resin; settings: milling at 400° F. (240° C.), 15 minutes, spectrophotometric
Procedure: Samples of light stabilizers are incorporated into polycarbonate resin by milling at 400° F. ([…]) for a 15 minute period. […] At the end of the milling period the percent stabilizer loss is determined spectrophotometrically.

[6] = Absorbance at 340nm (extinction coefficients); format: physicochemical; settings: for Specific Extinction Coefficient a: equal weight basis
Description: The compounds of this invention show unanticipated enhancement of absorbance at 340nm as can be seem from a comparison of molar extinction coefficients E compared to state of the art compund F which lacks an aralkyl-substituent in the 5-position. In many cases the enhanced absorbance is also seen when products are compared i.e. in terms of Specific Extinction Coefficients a on an equal weight rather than molar basis.
Molar Extinction Coefficient E = a × molecular weight

[7] = Solubility of crystalline modification forms; format: physicochemical; settings: organic solvents including xylene and methyl amyl ketone

Row | Compound | resistance to loss by volatilization [1] | solubility in substrates and processing solvents [2] | Solubility in Butyl Cellosolve Acetate [3] | Solubility in Heptane [3] | Solubility in Methyl Amyl Ketone [3] | Solubility in Xylene [3] | Time (minutes) to 50% Weight Loss of Stabilizer [4] [min] | Temperature °C. to 10% Weight Loss of Stabilizer [4] [°C] | Temperature °C. to 50% Weight Loss of Stabilizer [4] [°C] | % loss (by weight) of stabilizer [5] [%] | Molar Extinction Coefficient E [6] [L/mol/cm] | Specific Extinction Coefficient a [6] [L/g/cm] | resistance to thermogravimetric loss [4] | solubility of crystalline form melting at 114°-116° C. versus the other crystalline form [7] | compatibility / performance in substrates [2]
1 | CC(C)(C)CC(C)(C)c1cc(-n2nc3ccccc3n2)c(O)c(C(C)(C)CC(C)(C)C)c1 [2-(2-hydroxy-3,5-di-tert-octylphenyl)-2H-benzotriazole] | did not have outstanding resistance to loss by volatilization | enhanced solubility in processing solvents and substrates | – | – | – | – | – | – | – | – | – | – | – | – | –
2 | CCC(C)(C)c1cc(-n2nc3ccccc3n2)c(O)c(C(C)(C)CC)c1 [Compound B, 2(2-hydroxy-3,5-di-tert-amylphenyl)-2H--benzotriazole] | – | – | 19 grams per 100 grams solvent | 23 grams per 100 grams solvent | 34 grams per 100 grams solvent | 70 grams per 100 grams solvent | 0.9 | 200 | 233 | – | – | – | – | – | –
3 | CC(C)(c1ccccc1)c1cc(-n2nc3ccccc3n2)c(O)c(C(C)(C)c2ccccc2)c1 [Compound F, 2-[2-hydroxy-3,5-di-(alpha,alpha-dimethylbenzyl)phenyl]-2 H-benzotriazole] | superior resistance to loss from stabilized compositions during high temperature processing | relatively low solubility in some substrates and processing solvents | 14 grams per 100 grams solvent | 1.5 grams per 100 grams solvent | 6 grams per 100 grams solvent | 16 grams per 100 grams solvent | 24 | 300 | 340 | < 3 | 15100 | 34 | – | – | –
4 | CC(C)(C)CC(C)(C)c1cc(-n2nc3ccccc3n2)c(O)c(C(C)(C)c2ccccc2)c1 [Compound G, 2-[2-hydroxy-3-(alpha,alpha-dimethylbenzyl)-5-tert-octylphenyl]-2H-benzotriazole] | – | – | 19 grams per 100 grams solvent | 9.7 grams per 100 grams solvent | 33 grams per 100 grams solvent | 82 grams per 100 grams solvent | 7.4 | 267 | 307 | – | – | – | – | – | –
5 | CC(C)(C)c1cc(-n2nc3ccc(C(C)(C)c4ccccc4)cc3n2)c(O)c(C(C)(C)C)c1 [Example 7, 5-alpha,alpha-Dimethylbenzyl-2-(2-hydroxy-3,5-di-tert-butylphenyl)-2H-benzotriazole] | – | – | 61 grams per 100 grams solvent | 97 grams per 100 grams solvent | 128 grams per 100 grams solvent | 197 grams per 100 grams solvent | 19 | 295 | 338 | < 3 | 19000 | 43 | similar | – | –
6 | CC(C)(c1ccccc1)c1cc(-n2nc3ccc(C(C)(C)c4ccccc4)cc3n2)c(O)c(C(C)(C)c2ccccc2)c1 [Example 21, 5-alpha,alpha-Dimethylbenzyl-2-[2-hydroxy-3,5-di (alpha, alpha-dimethylbenzyl)phenyl]-2H-benzotriazole] | – | – | – | – | – | – | 2040 | 365 | 412 | < 3 | 19500 | 28 | very much more resistant to thermogravimetric loss | far greater solubility in many organic solvents | –
7 | CC(C)(C)CC(C)(C)c1cc(-n2nc3ccc(C(C)(C)c4ccccc4)cc3n2)c(O)c(C(C)(C)c2ccccc2)c1 [Example 22, 5-alpha,alpha-Dimethylbenzyl-2-(2-hydroxy-3-alpha,alpha-dimethylbenzyl-5-tert-octylphenyl)-2H-benzotriazole] | – | – | – | – | – | – | 840 | 340 | 387 | – | 18500 | 33 | – | – | –
8 | CCC(C)(C)c1cc(-n2nc3ccc(C(C)(C)c4ccccc4)cc3n2)c(O)c(C(C)(C)CC)c1 [Example 23] | – | – | > 100 grams per 100 grams solvent | > 100 grams per 100 grams solvent | > 100 grams per 100 grams solvent | > 100 grams per 100 grams solvent | 33 | 285 | 325 | – | 19100 | 41 | – | – | –
9 | CC(C)(C)CC(C)(C)c1cc(-n2nc3ccc(C(C)(C)c4ccccc4)cc3n2)c(O)c(C(C)(C)CC(C)(C)C)c1 [Example 24, 5-alpha,alpha-Dimethylbenzyl-2-(2-hydroxy-3,5-di-tert-octylphenyl)-2H-benzotriazole] | – | – | – | – | – | – | 40 | 308 | 348 | – | 17400 | 31 | – | – | –
10 | CC(C)(c1ccccc1)c1cc(-n2nc3ccc(Cc4ccccc4)cc3n2)c(O)c(C(C)(C)c2ccccc2)c1 [Example 26, 5-Benzyl-2-[2-hydroxy-3,5-di-(alpha,alpha-dimethylbenzyl)phenyl]-2H-benzotriazole] | – | – | – | – | – | – | 3780 | 360 | 405 | – | 18500 | 35 | very much more resistant to thermogravimetric loss | – | –
11 | Cc1ccc(O)c(-n2nc3ccccc3n2)c1 [Stabilizer A, 2(2-hydroxy-5-methylphenyl)-2H--benzotriazole] | – | – | – | – | – | – | 0.75 | 182 | 215 | – | – | – | – | – | –
12 | CCC(C)c1cc(-n2nc3ccccc3n2)c(O)c(C(C)(C)C)c1 (stereo not shown) [Stabilizer C, 2(2-hydroxy-3-tert-butyl-5-sec-butylphenyl)-2H--benzotriazole] | – | – | – | – | – | – | 1.0 | 210 | 247 | – | – | – | – | – | –
13 | CC(C)(C)CC(C)(C)c1ccc(O)c(-n2nc3ccccc3n2)c1 [Stabilizer D, 2-(2-hydroxy-5-tert-octylphenyl)-2H-benzotriazole] | – | – | – | – | – | – | 1.9 | 225 | 260 | 40 | – | – | – | – | superior compatibility and performance in polyethylene
14 | Cc1cc(C(C)c2ccccc2)c(O)c(-n2nc3ccccc3n2)c1 (stereo not shown) [Stabilizer E, 2-[2-hydroxy-3-(1-phenylethyl)-5-methylphenyl]-2H-benzotriazole] | better resistance to loss by volatilization during processing | – | – | – | – | – | 3.0 | 250 | 290 | – | – | – | – | – | better compatibility
